This test concerns the target T1, purified poplar OMT (Populus trichocarpa x Populus deltoides, UniProt Q9LWB8).
T1 construct: closely related isoforms co-purify
The experiment in a line: Specific activity of the purified poplar OMT towards O-diphenolic substrates. It is filed as biochemical. The method, then:
The specific activity of the purified OMT towards three different O-diphenolic substrates was measured. Using catechol, caffeic acid, and hydroxyferulic acid as substrate, we found an OMT activity of 0, 30, and 15 nkat/mg protein, respectively.

T1 sequence (Q9LWB8 entry or part of it T91I): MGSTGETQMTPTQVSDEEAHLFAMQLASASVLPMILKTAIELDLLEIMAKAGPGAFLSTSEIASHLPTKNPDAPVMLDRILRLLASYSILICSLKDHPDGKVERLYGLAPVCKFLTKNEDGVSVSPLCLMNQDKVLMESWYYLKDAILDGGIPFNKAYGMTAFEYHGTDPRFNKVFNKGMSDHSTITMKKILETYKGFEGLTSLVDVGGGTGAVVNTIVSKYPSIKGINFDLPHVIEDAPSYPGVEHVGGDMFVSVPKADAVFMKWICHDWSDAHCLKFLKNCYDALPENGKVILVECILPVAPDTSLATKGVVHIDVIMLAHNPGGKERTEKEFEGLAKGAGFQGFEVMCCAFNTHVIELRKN

`O=C(O)/C=C/c1ccc(O)c(O)c1` [caffeic acid]: the “OMT activity (specific activity) with compound as substrate” value is 30 nkat/mg protein. The figure for `Oc1ccccc1O` [catechol] is 0 nkat/mg protein.

These data come from patent US5959178A, “Modification of lignin synthesis in plants” (Imperial Chemical Industries PLC, priority 1991, dated 1999).
